Converted amounts (≈) assume the structure as drawn. The source made the active and inactive calls. The rule behind the calls is not given here.
Legend:
Escherichia coli [1] = experiment: Antibacterial activity against ESBL producing Escherichia coli ATCC 35218 after 20 to 22 hrs; format: functional
Escherichia coli [2] = experiment: Antibacterial activity against Escherichia coli K-12 MG1655 after 20 to 22 hrs; conditions: K-12 substr. MG1655
Escherichia coli [3] = experiment: Antibacterial activity against tolC-deficient Escherichia coli K-12 MG1655 after 20 to 22 hrs; format: functional; conditions: K-12 substr. MG1655
Escherichia coli [4] = experiment: Antibacterial activity against hyperpermeable Escherichia coli D22 harboring LpxC mutant after 20 to 22 hrs
Pseudomonas aeruginosa [5] = experiment: Antibacterial activity against Pseudomonas aeruginosa PAO1 after 20 to 22 hrs; format: functional
Pseudomonas aeruginosa [6] = experiment: Antibacterial activity against Pseudomonas aeruginosa PAO750 harboring mexAB-oprM/mexCD-oprJ/mexEF-oprN/mexXY/opmH/mexJK/pscC deletion mutant after 20 to 22 hrs; format: functional
Staphylococcus aureus [7] = experiment: Antibacterial activity against methicillin-resistant Staphylococcus aureus ATCC 33592 after 20 to 22 hrs; format: functional
[8] = Cytotoxicity against human HepG2 cells assessed as decrease in cell viability after 40 hrs by Celltiter Glo assay
Escherichia coli [9] = experiment: Inhibition of DNA synthesis in tolC-deficient Escherichia coli K-12 MG1655 at MIC to 8 times MIC after 5 to 120 mins by [methyl-3H]-thymidine incorporation assay; format: functional, organism-based; conditions: K-12 substr. MG1655
Acinetobacter baumannii [10] = experiment: Antibacterial activity against Acinetobacter baumannii BM4652 harboring adeABC/adeIJK deletion mutant after 20 to 22 hrs; format: functional
Klebsiella pneumoniae [11] = experiment: Antibacterial activity against tolC-deficient Klebsiella pneumoniae 1161486a after 20 to 22 hrs; format: functional
Acinetobacter baumannii [12] = experiment: Antibacterial activity against Acinetobacter baumannii BM4454 after 20 to 22 hrs; format: functional
Klebsiella pneumoniae [13] = experiment: Antibacterial activity against Klebsiella pneumoniae 1161486 after 20 to 22 hrs; format: functional
Staphylococcus aureus [14] = experiment: Antibacterial activity against methicillin-resistant Staphylococcus aureus ATCC 33592 after 20 to 22 hrs in presence of 50% calf fetal serum; format: functional, organism-based
Staphylococcus aureus [15] = experiment: Antibacterial activity against methicillin-resistant Staphylococcus aureus ATCC 33592 after 20 to 22 hrs in presence of 50% mouse serum; format: functional, organism-based
[16] = Thermodynamic aqueous solubility of the compound at pH 7.4; conditions: aqueous solution
[17] = Apparent permeability across human Caco2 cells; conditions: Caco-2
[18] = Drug metabolism in human liver microsomes at 5 uM after 20 mins in presence of NADPH; format: ADME, microsome; conditions: read-out: Drug metabolism
[19] = Drug metabolism in mouse liver microsomes at 5 uM after 20 mins in presence of NADPH; format: ADME, microsome; conditions: read-out: Drug metabolism
[20] = Drug metabolism in rat liver microsomes at 5 uM after 20 mins in presence of NADPH; format: ADME, microsome; conditions: read-out: Drug metabolism
Cytochrome P450 3A4 [21] = biological target: T1, Cytochrome P450 3A4 (Homo sapiens, UniProt P08684); experiment: Inhibition of CYP3A4-mediated midazolam metabolism in human liver microsomes
T1 sequence (P08684 whole entry): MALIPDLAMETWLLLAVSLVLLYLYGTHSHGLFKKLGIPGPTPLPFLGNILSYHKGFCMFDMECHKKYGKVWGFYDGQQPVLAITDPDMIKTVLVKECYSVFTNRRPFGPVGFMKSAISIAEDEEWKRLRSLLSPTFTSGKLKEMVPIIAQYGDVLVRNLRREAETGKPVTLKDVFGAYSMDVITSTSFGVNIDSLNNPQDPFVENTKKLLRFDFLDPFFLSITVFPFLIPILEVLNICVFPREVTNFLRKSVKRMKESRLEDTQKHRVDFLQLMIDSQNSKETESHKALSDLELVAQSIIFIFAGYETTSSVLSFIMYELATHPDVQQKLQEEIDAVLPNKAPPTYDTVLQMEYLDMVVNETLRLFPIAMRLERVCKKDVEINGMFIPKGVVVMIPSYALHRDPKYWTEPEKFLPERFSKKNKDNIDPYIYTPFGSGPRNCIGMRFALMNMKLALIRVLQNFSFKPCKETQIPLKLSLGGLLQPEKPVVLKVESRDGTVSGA

Cytochrome P450 3A4 [22] = biological target: T1, Cytochrome P450 3A4; experiment: Inhibition of CYP3A4-mediated testosterone metabolism in human liver microsomes
[23] = biological target: Voltage-gated inwardly rectifying potassium channel KCNH2 (Homo sapiens, UniProt Q12809); experiment: Inhibition of human ERG transfected in CHO cells by patch clamp method
Sequence of Voltage-gated inwardly rectifying potassium channel KCNH2 (Q12809 whole entry): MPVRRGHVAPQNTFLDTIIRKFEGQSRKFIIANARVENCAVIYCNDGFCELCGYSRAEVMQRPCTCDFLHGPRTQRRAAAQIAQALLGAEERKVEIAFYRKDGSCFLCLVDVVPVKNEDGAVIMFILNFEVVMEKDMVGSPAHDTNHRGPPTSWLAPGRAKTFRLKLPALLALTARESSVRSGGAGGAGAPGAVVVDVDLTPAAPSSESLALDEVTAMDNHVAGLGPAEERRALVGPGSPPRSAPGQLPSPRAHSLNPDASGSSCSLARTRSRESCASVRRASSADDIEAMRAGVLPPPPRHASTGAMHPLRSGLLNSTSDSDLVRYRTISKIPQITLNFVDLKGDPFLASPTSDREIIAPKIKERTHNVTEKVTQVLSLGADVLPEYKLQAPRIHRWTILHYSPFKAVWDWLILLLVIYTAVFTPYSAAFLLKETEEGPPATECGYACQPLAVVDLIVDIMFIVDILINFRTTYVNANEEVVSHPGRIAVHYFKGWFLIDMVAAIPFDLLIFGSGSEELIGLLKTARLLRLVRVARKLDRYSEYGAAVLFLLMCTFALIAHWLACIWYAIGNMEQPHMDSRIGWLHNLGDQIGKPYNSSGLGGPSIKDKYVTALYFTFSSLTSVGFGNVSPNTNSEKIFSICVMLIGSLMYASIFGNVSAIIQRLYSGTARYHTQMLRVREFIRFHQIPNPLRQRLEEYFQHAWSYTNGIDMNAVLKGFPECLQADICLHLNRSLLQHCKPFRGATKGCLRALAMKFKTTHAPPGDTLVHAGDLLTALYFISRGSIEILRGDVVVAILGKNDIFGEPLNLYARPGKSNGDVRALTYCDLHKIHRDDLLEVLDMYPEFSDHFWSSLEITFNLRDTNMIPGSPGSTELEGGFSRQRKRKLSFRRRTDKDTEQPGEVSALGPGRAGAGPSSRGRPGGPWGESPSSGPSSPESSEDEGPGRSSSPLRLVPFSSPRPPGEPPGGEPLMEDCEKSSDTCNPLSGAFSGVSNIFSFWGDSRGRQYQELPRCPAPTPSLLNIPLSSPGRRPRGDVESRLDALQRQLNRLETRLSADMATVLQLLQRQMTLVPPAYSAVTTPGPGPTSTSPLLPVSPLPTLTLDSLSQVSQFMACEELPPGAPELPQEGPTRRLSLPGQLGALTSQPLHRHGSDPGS

[24] = Metabolic stability in mouse plasma at 1 uM after 4 hrs; format: ADME, cell-free; conditions: read-out: Stability
[25] = Metabolic stability in rat plasma at 1 uM after 4 hrs; format: ADME, cell-free; conditions: read-out: Stability
L5178Y [26] = experiment: Genotoxicity in mouse L5178Y cells after 23 hrs in absence of S9 fraction by micronucleus test; format: toxicity, cell-based
L5178Y [27] = experiment: Genotoxicity in mouse L5178Y cells after 3 hrs in presence of S9 fraction by micronucleus test; format: toxicity, cell-based; conditions: s9, 3 h
Staphylococcus aureus [28] = experiment: Antibacterial activity against wild type Staphylococcus aureus RN4220 after 20 to 22 hrs; format: functional
Staphylococcus aureus [29] = experiment: Antibacterial activity against Staphylococcus aureus RN4220 harboring GyrA D83N mutant after 20 to 22 hrs; format: functional
Staphylococcus aureus [30] = experiment: Antibacterial activity against Staphylococcus aureus RN4220 harboring GyrA D83N/ParC D79N double mutant after 20 to 22 hrs; format: functional
Staphylococcus aureus [31] = experiment: Antibacterial activity against Staphylococcus aureus RN4220 harboring GyrB D437N mutant after 20 to 22 hrs; format: functional
Staphylococcus aureus [32] = experiment: Antibacterial activity against Staphylococcus aureus RN4220 harboring ParC S80F mutant after 20 to 22 hrs; format: functional
Staphylococcus aureus [33] = experiment: Antibacterial activity against Staphylococcus aureus RN4220 harboring ParC S80F/GyrA S84L double mutant after 20 to 22 hrs; format: functional
Klebsiella pneumoniae [34] = experiment: Antibacterial activity against wild type Klebsiella pneumoniae 1161486 after 20 to 22 hrs; format: functional
Klebsiella pneumoniae [35] = experiment: Antibacterial activity against Klebsiella pneumoniae 1161486 harboring GyrA S83I mutant after 20 to 22 hrs; format: functional
Klebsiella pneumoniae [36] = experiment: Antibacterial activity against Klebsiella pneumoniae 1161486 harboring GyrA S83I/ParC S80I double mutant after 20 to 22 hrs; format: functional
Klebsiella pneumoniae [37] = experiment: Antibacterial activity against Klebsiella pneumoniae 1161486 harboring GyrA S83F/D87V/ParC S80I triple mutant after 20 to 22 hrs; format: functional
Escherichia coli [38] = experiment: Antibacterial activity against Escherichia coli K-12 MG1655 harboring GyrA S83L/D87N/ParC S80I triple mutant after 20 to 22 hrs; format: functional; conditions: K-12 substr. MG1655
Staphylococcus aureus [39] = experiment: Resistance factor, ratio of MIC for Staphylococcus aureus RN4220 harboring GyrA D83N mutant to MIC for wild type Staphylococcus aureus RN4220; format: functional
Staphylococcus aureus [40] = experiment: Resistance factor, ratio of MIC for Staphylococcus aureus RN4220 harboring GyrA D83N/ParC D79N double mutant to MIC for wild type Staphylococcus aureus RN4220; format: functional
Staphylococcus aureus [41] = experiment: Resistance factor, ratio of MIC for Staphylococcus aureus RN4220 harboring GyrB D437N mutant to MIC for wild type Staphylococcus aureus RN4220; format: functional
Staphylococcus aureus [42] = experiment: Resistance factor, ratio of MIC for Staphylococcus aureus RN4220 harboring ParC S80F mutant to MIC for wild type Staphylococcus aureus RN4220; format: functional
Staphylococcus aureus [43] = experiment: Resistance factor, ratio of MIC for Staphylococcus aureus RN4220 harboring ParC S80F/GyrA S84L double mutant to MIC for wild type Staphylococcus aureus RN4220; format: functional
Klebsiella pneumoniae [44] = experiment: Resistance factor, ratio of MIC for Klebsiella pneumoniae 1161486 harboring GyrA S83I mutant to MIC for wild type Klebsiella pneumoniae 1161486; format: functional
Klebsiella pneumoniae [45] = experiment: Resistance factor, ratio of MIC for Klebsiella pneumoniae 1161486 harboring GyrA S83I/ParC S80I double mutant to MIC for wild type Klebsiella pneumoniae 1161486; format: functional
Klebsiella pneumoniae [46] = experiment: Resistance factor, ratio of MIC for Klebsiella pneumoniae 1161486 harboring GyrA S83F/D87V/ParC S80I triple mutant to MIC for wild type Klebsiella pneumoniae 1161486; format: functional
Escherichia coli [47] = experiment: Resistance factor, ratio of MIC for Escherichia coli K-12 MG1655 harboring GyrA S83L/D87N/ParC S80I triple mutant to MIC for wild type Escherichia coli K-12 MG1655; format: functional, K-12 substr. MG1655
Escherichia coli [48] = experiment: Antibacterial activity against tolC-deficient fluoroquinolones-sensitive Escherichia coli JC7623 clinical isolate harboring wild type DNA gyrase after 20 to 22 hrs
Escherichia coli [49] = experiment: Antibacterial activity against tolC-deficient fluoroquinolones-resistant Escherichia coli W4753 clinical isolate harboring DNA gyrase S83L/D87N/ParC S80I/ParE S458A mutant after 20 to 22 hrs
Escherichia coli [50] = experiment: Resistance factor, ratio of MIC for 4 times MIC-treated tolC-deficient Escherichia coli ATCC 25922 harboring DR76_3503 Q47H mutant to MIC for tolC-deficient Escherichia coli ATCC 25922; format: functional
Escherichia coli [51] = experiment: Resistance factor, ratio of MIC for 4 times MIC-treated tolC-deficient Escherichia coli ATCC 25922 to MIC for tolC-deficient Escherichia coli ATCC 25922; format: functional
DNA gyrase = DNA gyrase (Escherichia coli, UniProt P0AES4+P0AES6)
Description: Inhibition of Escherichia coli DNA gyrase A2B2 using relaxed pNO1 as substrate

SMILES: N[C@H]1CCN(c2cc3c(cc2F)n2ccnc2c(=O)n3C2CC2)C1
- MIC (Escherichia coli [1]): 4 µg/mL (≈ 12.2 µM)
- MIC (Escherichia coli [2]): 8 µg/mL (≈ 24.4 µM)
- MIC (Escherichia coli [3]): < 0.125 µg/mL
- MIC (Escherichia coli [4]): 2 µg/mL (≈ 6.11 µM)
- MIC (Pseudomonas aeruginosa [5]): 32 µg/mL (≈ 97.8 µM)
- MIC (Pseudomonas aeruginosa [6]): < 0.125 µg/mL
- MIC (Staphylococcus aureus [7]): 8 µg/mL (≈ 24.4 µM)
- CC50 at 40 h [8]: > 30 µM
- inhibition (Escherichia coli [9]): Active
- MIC (Acinetobacter baumannii [10]): 4 to 8 µg/mL (≈ 12.2 to 24.4 µM)
- MIC (Klebsiella pneumoniae [11]): 0.5 µg/mL (≈ 1.53 µM)
- MIC (Acinetobacter baumannii [12]): > 64 µg/mL
- MIC (Klebsiella pneumoniae [13]): 32 µg/mL (≈ 97.8 µM)
- Activity (Staphylococcus aureus [14]): Active
- Activity (Staphylococcus aureus [15]): Active
- solubility thermodynamic [16]: 1130 µg/mL (≈ 3460 µM)
- Papp [17]: 0.4 ×10⁻⁶ cm/s
- metabolised at 20 min, 5 µM [18]: 6%
- metabolised at 20 min, 5 µM [19]: 8%
- metabolised at 20 min, 5 µM [20]: 11%
- IC50 (Cytochrome P450 3A4 [21]): > 30 µM
- IC50 (Cytochrome P450 3A4 [22]): > 30 µM
- IC50 [23]: > 30 µM
- remaining at 4 h, 1 µM [24]: 80 to 120%
- remaining at 4 h, 1 µM [25]: 80 to 120%
- Activity (L5178Y [26]): Toxic
- Activity (L5178Y [27]): Toxic
- MIC (Staphylococcus aureus [28]): 4 µg/mL (≈ 12.2 µM)
- MIC (Staphylococcus aureus [29]): 4 µg/mL (≈ 12.2 µM)
- MIC (Staphylococcus aureus [30]): 16 µg/mL (≈ 48.9 µM)
- MIC (Staphylococcus aureus [31]): 4 µg/mL (≈ 12.2 µM)
- MIC (Staphylococcus aureus [32]): 8 µg/mL (≈ 24.4 µM)
- MIC (Staphylococcus aureus [33]): 16 µg/mL (≈ 48.9 µM)
- MIC (Klebsiella pneumoniae [34]): 16 µg/mL (≈ 48.9 µM)
- MIC (Klebsiella pneumoniae [35]): 64 µg/mL (≈ 196 µM)
- MIC (Klebsiella pneumoniae [36]): 128 µg/mL (≈ 391 µM)
- MIC (Klebsiella pneumoniae [37]): 64 µg/mL (≈ 196 µM)
- MIC (Escherichia coli [38]): 512 µg/mL (≈ 1560 µM)
- Ratio (Staphylococcus aureus [39]): 1
- Ratio (Staphylococcus aureus [40]): 4
- Ratio (Staphylococcus aureus [41]): 1
- Ratio (Staphylococcus aureus [42]): 2
- Ratio (Staphylococcus aureus [43]): 4
- Ratio (Klebsiella pneumoniae [44]): 4
- Ratio (Klebsiella pneumoniae [45]): 8
- Ratio (Klebsiella pneumoniae [46]): 4
- Ratio (Escherichia coli [47]): 64
- MIC (Escherichia coli [48]): 0.125 µg/mL (≈ 0.382 µM)
- MIC (Escherichia coli [49]): 2 µg/mL (≈ 6.11 µM)
- Ratio (Escherichia coli [50]): 32
- Ratio (Escherichia coli [51]): 8
- IC50 (DNA gyrase): 1.19 µM

From ChEMBL document CHEMBL4177750, “Imidazopyrazinones (IPYs): Non-Quinolone Bacterial Topoisomerase Inhibitors Showing Partial Cross-Resistance with Quinolones” (J Med Chem, 2018)
